Test results reported in patent publication US20240139149A1, “THERAPEUTIC USES OF UROLITHIN DERIVATIVES” (Vandria SA, priority 2022, published 2024).
“Also recorded” adds a separate entry of the source.

Assays:
APTK organoids = assay: APTK tumor organoids treated with UA (lysosomes, mitochondria, MHC-I by flow cytometry); assay type: cell-based, mouse; settings: increasing concentrations of UA
Procedure: APTK colorectal organoids which harbor mutations for Apc, Trp53 and Tgfbr2 as well as expression of oncogenic KraSG12D were established and maintained as previously described (Nicolas et al., 2022; Varga et al., 2020). APTK organoids were seeded in 6 wells suspension plates: 6 droplets of 50 l Matrigel (Corning) per well were used. To generate OVA-APTK, colon organoids were isolated from unchallenged OVA mice (The Jackson Laboratory) as previously described (Nicolas et al., 2022). Liposomes CRISPR/Cas9 technology-based transfection was used for targeted knockout of the following mutated colorectal cancer-related genes: Apc (gRNA: […])(SEQ ID NO:1), Trp53 gRNA: […]) (SEQ ID NO:2), and Tgfbr2 (gRNA: […]) (SEQ ID NO:3) as previously described (Schwank and Clevers, 2016). Cas9 plasmid (Addgene; #41815) was used along gRNA plasmids generated from addgene #41819 plasmid by cloning the gRNA of interest instead of GFP targeting gRNA. Firstly, Apc knockout (A) organoids were functionally selected by the withdrawal of R-spondin from the culture medium. Secondly, Apc Trp53 (AT) knockout organoids were selected for Trp53 loss with 5 μM of MDM2 inhibitor (Nutlin-3) (Biomole, cat no. 10004372). Thirdly, Apc Trp53 Tgfbr2 (APT) knockout organoids were selected with […] recombinant TGFβ (R&D Systems; 7666-MB). Finally, KrasG12D gain of function mutation was obtained by overexpressing the active murine version of Kras gene (cloned in house based on Addgene plasmid #111164, Map-S5) in APT organoids. Apc, Trp53, Tgfbr2 and KrasG12D (APTK) OVA organoids were selected by 2 μg/mL puromycin (Merck; 58-58-2) and withdrawal of EGF and noggin from the culture medium. In order to study the effect of UA on lysosome formation, mitochondria reduction as well as antigen presentation, organoids were treated with 25-50 μM UA for 24-48 h. Organoids were subsequently stained with a MHC-I antibody (AF6-88.5; 116516; BioLegend), Mitotracker Deep Red (250 nm; ThermoFisher) and Lysotracker Red DND-99 (75 nM; ThermoFisher).

[1] = system: CEA-CAR T cells / CEA-expressing human CRC organoids; assay: CEA-CAR T cells exposed to UA and killing of human CRC organoids; assay type: cell-based
[2] = system: aged mice injected with Aβ1-42; assay: Mouse model of Alzheimer's disease, intrahippocampal injection of Aβ1-42 oligomers; assay type: in vivo
Procedure: A total of 18-month-old C57BL6 male mice were included in the study (n=12 per group). The animals were housed up to 4 to a cage, in clear polycarbonate cages with a stainless steel mesh lid and floor in a day/night inversed cycle (12 h/12 h). Drinking water and food were supplied ad libitum to each cage. The animals were kept for a period of acclimation of a minimum of 5 days before any handling.
All mice were subjected to surgery and were injected with 2 μL of vehicle or of A 1-42 solution. Aβ1-42 peptide (Bachem) was dissolved in the vehicle, at an initial concentration of 100 μM (the mother preparation was characterized by automatic WB, and precisely contained 15% of AβO). This solution was gently agitated for 3 days at 37° C. in the dark before any use until the day of the surgery.
The Aβ1-42 preparation was bilaterally injected into the […] of the CA1 area of the hippocampus (at three different depths). A total of 2 μL/side of A 1-42 preparation (100 μM), or vehicle, were bilaterally injected with a Hamilton syringe in the CA1 area of the hippocampus (0.2 μL/min with an Elite Nanomite syringe pump).
Vehicle (0.5% carboxy methyl cellulose (CMC)) or 33 at 1 mg/kg/d was administrated daily by gavage (per os: p.o). The treatment started 1 day after the surgery (D+1) and lasted until the end of the study (D+27). The study was stopped 4 weeks after the surgery (on D28).
The week before the surgery, a training session was performed, for habituation (5 minutes) to the maze. Fourteen (14) days after the surgery, mice were tested for short-term memory deficit in the Y-maze test.
The test was based on two trials: • Trial 1. Mice were allowed to freely explore two arms of the Y-maze during 5 min. The third arm remained closed during the trial. At the end of the 5 min, the animal was placed for 3 min in an empty cage. The Y-maze was cleaned with acetic acid to neutralize odors. • Trial 2. Mice were then allowed to freely explore the three arms of the Y-maze during 5 min. This trial corresponds to the test session.
Both trials were recorded by a video camera using Ethovision system (Noldus). The following items were automatically recorded: a) total distance in the Y-maze and b) the time spent in each arm.
At the end of the experiment (on day 28), 5 mice per group were deeply anesthetized and plasma samples were collected. Mice were then perfused with cold PBS (3 minutes), and cold paraformaldehyde (PFA) 4% in PBS (for 3 minutes).
Six (n=6) brain sections per animal were processed and incubated for 24 hours at 4° C. or 2 hours at room temperature with selected antibodies (Abs). The following antibodies were used: • NeuN: Rabbit polyclonal antibody anti-NeuN (1/1000). • Iba1: Rabbit polyclonal antibody anti-Iba1 (1/500). • Tau phospho Ser212/Thr214 (AT100): Mouse monoclonal antibody anti-AT100 (1/200).
Images were acquired with a confocal microscope LSM 900 with Zen software at 20× magnification (Zeiss) using the same acquisition parameters (automatic acquisition). […] The following read-outs were measured: • Number of NeuN positive pyramidal cells in the CA1 area. • Activation of Iba1-positive microglial cells in the CA1 area. • Activation of AT100 positive neurons in the CA1 area.
Results were analyzed using GraphPad Prism software version 8.0.2. *p<0.05 after a One-way or Two-way ANOVA followed by Fisher's test was considered significant.

Structure (SMILES): O=c1oc2cc(O)ccc2c2ccc(O)cc12 [UA, Urolithin A]
- MitoTracker staining (APTK organoids): loss of MitoTracker staining
- formation of lysosomes (lysotracker) (APTK organoids): dose-dependent formation of lysosomes
- MHC-I expression (APTK organoids; 48 hours): marked upregulation
- killing of CEA-expressing human CRC organoids ([1]; 72 h co-culture): comparable killing efficacy
- CAR TSCM formation in CEA-specific CAR-T cells ([1]; UA applied to previously frozen CAR-T cells): strongly enhanced

Structure (SMILES): O=c1oc2cc(O)ccc2c2ccc(OC3CCOCC3)cc12 [compound 33, 3-hydroxy-8-((tetrahydro-2H-pyran-4-yl)oxy)-6H-benzo[c]chromen-6-one]
- short-term spatial memory (time in new arm, Y-maze) ([2]; 1 mg/kg daily oral, 14 days post-surgery): able to prevent; also recorded: beneficial effects
- AT100 (hyperphosphorylated Tau) in neurons ([2]; 1 mg/kg daily, day 1 to day 28): decrease
- activation of Iba1(+) microglial cells ([2]; 1 mg/kg daily, day 1 to day 28): significantly decrease
- survival of NeuN(+) neurons in CA1 ([2]; 1 mg/kg daily, day 1 to day 28): significantly improved
- total distance traveled in Y-maze ([2]; 1 mg/kg/d p.o., 14 days post-surgery): not different between groups
